Measurements taken from patent US11213538B2, “Agent for overcoming immunosuppression and use thereof” (GENERAL INCORPORATED ASSOCIATION PHARMA VALLEY PROJECT …, priority 2016, dated 2022).

How the values were obtained:
[1] = biological target: T1, FOXP3 (Homo sapiens, UniProt Q9BZS1); assay: FOXP3 function inhibitory activity, NF-κB luciferase reporter in HEK293/NF-κB-RE/FOXP3 cells with TNF-alpha; type: cell-based; settings: for Chemiluminescence intensity ratio (HEK293/NF-κB-RE/FOXP3 cells / HEK293/NF-κB-RE cells): DMSO control = 1.0
T1 construct: expressed in transfected cells
T1 sequence (Q9BZS1 1-431): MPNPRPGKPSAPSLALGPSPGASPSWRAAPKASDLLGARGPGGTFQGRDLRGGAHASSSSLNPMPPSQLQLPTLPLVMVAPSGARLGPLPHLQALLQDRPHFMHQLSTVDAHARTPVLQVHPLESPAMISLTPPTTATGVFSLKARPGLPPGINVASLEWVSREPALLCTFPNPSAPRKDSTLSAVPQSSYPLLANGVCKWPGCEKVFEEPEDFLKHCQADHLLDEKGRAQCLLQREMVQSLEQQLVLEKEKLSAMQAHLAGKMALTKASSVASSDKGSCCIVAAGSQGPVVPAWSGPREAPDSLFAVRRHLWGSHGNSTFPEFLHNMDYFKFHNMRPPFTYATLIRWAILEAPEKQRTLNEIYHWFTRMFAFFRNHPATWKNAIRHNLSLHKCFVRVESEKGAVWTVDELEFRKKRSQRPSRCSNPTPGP
Method: Into HEK293/NF-κB-RE cells, pcDNA3.1-FOXP3 (Department of Cancer vaccine therapy/Immuno-gene therapy, Mie University Graduate School of Medicine), which is a FOXP3 gene expression vector, was introduced, and the cells were subjected to a selection through culture in a medium containing 0.5 mg/mL G418 for 3 weeks. The obtained single clone was isolated and established as a stable line. For culture, DMEM containing 10% heat inactivated […], 0.2 mg/mL Hygromycin B, and 0.5 mg/mL G418 was used.
A cell suspension of 1.875×10^5 cells/mL was prepared for HEK293/NF-κB-RE/FOXP3 cells and HEK293/NF-κB-RE cells, respectively, using DMEM with 10% heat inactivated FBS and without phenol red (medium for assay). The cell suspension was seeded into a 96 well white microplate (nunc) at 80 μL/well (1.5×10^4 cells/well) and the cells were cultured overnight under the conditions of 37° C. and 5% CO2.
A DMSO solution of a test drug with a concentration of 1000 times the final concentration was diluted 100 times with the medium for assay to prepare a test drug solution with a concentration of 10 times the final concentration (a 10 times concentration test drug solution). To each well into which the cell suspension was seeded, 10 μL of the 10 times concentration test drug solution was added and treatment was carried out under the conditions of 37° C. and 5% CO2 for an hour (10 μL of a 1% DMSO solution was added to the control at this time).
Recombinant Human TNF-alpha (R&D Systems) was made to 100 μg/mL with 0.1% BSA-containing PBS, and was further diluted with the medium for assay to prepare a 3 ng/mL TNF-alpha solution. To each well described above, 10 μL of the 3 ng/mL TNF-alpha solution was added, and stimulation was performed under the conditions of 37° C. and 5% CO2 for 2.5 hours (the final concentration of TNF-alpha: 0.3 ng/mL).
The culture supernatant was removed, and the cells were washed once with 100 μL of the medium for assay. After adding 100 μL of the medium for assay, 50 μL of Steady-Glo (Promega Corporation) was added. The microplate was shaken for 10 minutes on a plate shaker with the light blocked. After shaking, the chemiluminescence intensity was measured by ARVO Light plate reader (Perkin Elmer). It should be noted that each test was carried out three times. The results obtained by using HEK293/NF-κB-RE/FOXP3 cells are shown in FIG. 1(A) and the results obtained by using HEK293/NF-κB-RE cells are shown in FIG. 1(B).
The FOXP3 inhibitory activity was evaluated in the same method as that in Example 1 except that the test drug was changed to epirubicin, pirarubicin, daunorubicin, doxorubicin, or idarubicin. The final concentration of each test drug was 0.01, 0.03, 0.1, 0.3 or 1 μM (only epirubicin and doxorubicin were tested also at 1 μM, and idarubicin was tested only at 0.01 and 0.03 μM).
Furthermore, the chemiluminescence intensity ratio was calculated by the Formula 1 below. The test was carried out three times. Chemiluminescence intensity ratio=(chemiluminescence intensity measured when HEK293/NF-κB-RE/FOXP3 cells were used)/(chemiluminescence intensity measured when HEK293/NF-κB-RE cells were used) [Formula 1] 3. Results

[2] = system: CD4+FOXP3+ and CD4+FOXP3− tumor-infiltrating lymphocytes; assay: IFN-γ positive cells among tumor-infiltrating lymphocytes of CMS5a tumor-bearing mice; type: in vivo, BALB/c mice; settings: epirubicin 0.1, 0.3, 1 mg/kg intravenously on days 3, 5, 7, TIL collected day 8
Method: CMS5a cells were transplanted under the skin in the posterodorsal region of female BALB/c mice (8 mice per group) on day 0. […] On day 8, the mice were euthanized and tumors were collected. Using gentle MACS dissociator (manufactured by Miltenyi Biotec) in accordance with the instruction manual, tumor-infiltrating lymphocytes (TIL) were separated from the tumors. The collected cells were seeded into a 24 well plate and stimulated with phorbol 12-myristate 13-acetate (PMA) and ionomycin under the condition of 37° C. for an hour, and then cultured with GolgiPlug (BD Biosciences) for 6 hours. After collecting the cells, the cells were stained with PreCP-CyTM5.5 rat anti-mouse CD4 antibody (manufactured by BD Pharmingen) and V500 rat anti-mouse CD8a antibody (manufactured by BD Horizon) under the condition of 4° C. for 15 minutes. The stained cells were fixed with Fixation/Permeabilization Concentrate and Diluent (1:3, manufactured by eBioscience) under the condition of 4° C. overnight. […] The stained cells were analyzed using FACS Canto II flow cytometer (manufactured by Becton Dickinson).

[3] = system: HEK293/NF-κB-RE cells; assay: NF-κB luciferase reporter in HEK293/NF-κB-RE cells without FOXP3, with TNF-alpha; type: cell-based, human; settings: epirubicin 0.003-1 μM, TNF-alpha 0.3 ng/mL, FIG. 1(B)
Description: Herein, the activity of inhibiting FOXP3 function can be evaluated by preparing HEK293 cells (HEK293/NF-κB-RE cells) into which a luciferase reporter vector has been stably introduced and cells (HEK293/NF-κB-RE/FOXP3 cells) obtained by stably introducing the FOXP3 gene into the HEK293/NF-κB-RE cells, adding a test drug and TNF-alpha (TNF-α) thereto, followed by culture, and measuring a difference in chemiluminescence intensity in each cell group.
Into a human embryonic kidney-derived cell line HEK293 (RIKEN CELL BANK), pGL4.32 [luc2P/NF-κB-RE/Hygro] (Promega Corporation), which is a luciferase reporter vector, was introduced, and the cells were subjected to a selection through culture in a medium containing 0.2 mg/mL Hygromycin B for 3 weeks. The obtained single clone was isolated and established as a stable line. For culture, DMEM (Dulbecco's Modified Eagle's Medium) containing 10% heat inactivated FBS and 0.2 mg/mL Hygromycin B was used.
A cell suspension of 1.875×10^5 cells/mL was prepared for HEK293/NF-κB-RE/FOXP3 cells and HEK293/NF-κB-RE cells, respectively, using DMEM with 10% heat inactivated FBS and without phenol red (medium for assay). […]
The culture supernatant was removed, and the cells were washed once with 100 μL of the medium for assay. […] After shaking, the chemiluminescence intensity was measured by ARVO Light plate reader (Perkin Elmer). […]

[4] = system: mouse regulatory T cells; assay: Overcoming immunosuppressive action of mouse regulatory T cells: growth of CFSE-stained CD8+ T cells co-cultured with epirubicin-treated CD4+CD25+ T lymphocytes; type: cell-based, BALB/c mice; settings: in the presence of regulatory T cells treated with epirubicin at a low dose not showing cytotoxicity, FIG. 2
Method: Anti-CD3 antibody (1 μg/mL, manufactured by eBioscience) was added to a 12 well flat-bottom plate and the plate was left to stand at 4° C. overnight, and then washed with RPMI 1640 medium. Spleen was isolated from BALB/c mice, and CD4^+CD25^+ T lymphocytes were isolated using a mouse regulatory T cell isolation kit (manufactured by Miltenyi Biotec) and autoMACS separator (manufactured by Miltenyi Biotec). To the 12 well flat-bottom plate coated with anti-CD3 antibody, seven hundred thousand CD4^+CD25^+ T lymphocytes per well were added, and anti-CD28 antibody (manufactured by eBioscience) and IL-2 (NOVARTIS) were added so that the concentrations were 1 μg/mL and 60 IU/mL, respectively. Next, epirubicin was added at various concentrations and the lymphocytes were cultured in an incubator at 37° C. for 48 hours and then washed with a 10% FBS supplemented RPMI 1640 medium.
Anti-CD3 antibody (1 μg/mL, manufactured by eBioscience) was added to a 96 well flat-bottom plate and the plate was left to stand at 4° C. overnight, and then washed with RPMI 1640 medium. […] The lymphocytes were collected and washed with PBS containing 0.5% BSA, and then stained with anti-CD8-APC antibody (manufactured by eBioscience) and analyzed using FACS Canto II flow cytometer (manufactured by Becton Dickinson).

[5] = test drug concentration 0.01 (μM)
[6] = test drug concentration 0.03 (μM)
[7] = test drug concentration 0.1 (μM)
[8] = test drug concentration 0.3 (μM)

Row | Structure (SMILES) | Chemiluminescence intensity ratio (HEK293/NF-κB-RE/FOXP3 cells / HEK293/NF-κB-RE cells) [1, 5] | Chemiluminescence intensity ratio (HEK293/NF-κB-RE/FOXP3 cells / HEK293/NF-κB-RE cells) [1, 6] | Chemiluminescence intensity ratio (HEK293/NF-κB-RE/FOXP3 cells / HEK293/NF-κB-RE cells) [1, 7] | Chemiluminescence intensity ratio (HEK293/NF-κB-RE/FOXP3 cells / HEK293/NF-κB-RE cells) [1, 8] | Chemiluminescence intensity ratio (HEK293/NF-κB-RE/FOXP3 cells / HEK293/NF-κB-RE cells) ([1]; test drug concentration 1 (μM)) | FOXP3 inhibitory activity (Example 2, in words) ([1]; 0.01-1 μM, Table 2) | inhibition of FOXP3 function (conclusion of Example 1) ([1]; FOXP3 cells compared with cells without FOXP3) | chemiluminescence intensity compared to control ([1]; HEK293/NF-κB-RE/FOXP3 cells, 0.1 μM) | chemiluminescence intensity compared to control ([1]; HEK293/NF-κB-RE/FOXP3 cells, 0.3 or 1 μM) | chemiluminescence intensity ([1]; HEK293/NF-κB-RE/FOXP3 cells, epirubicin 0.003-1 μM, TNF-alpha 0.3 ng/mL, FIG. 1(A)) | proportion of IFN-γ positive cells to CD4+FOXP3+ cells ([2]; FIG. 3(A)) | proportion of IFN-γ positive cells to CD4+FOXP3− cells ([2]; FIG. 3(B)) | chemiluminescence intensity [3] | growth rate of CD8+ T cells [4]
1 | COc1cccc2c1C(=O)c1c(O)c3c(c(O)c1C2=O)C[C@@](O)(C(C)=O)C[C@@H]3O[C@H]1C[C@H](N)[C@H](O)[C@H](C)O1 [Daunorubicin, daunorubicin] | 1.09 | 1.12 | 1.82 | 2.07 |  |  |  |  |  |  |  |  |  | 
2 | COc1cccc2c1C(=O)c1c(O)c3c(c(O)c1C2=O)C[C@@](O)(C(=O)CO)C[C@@H]3O[C@H]1C[C@H](N)[C@H](O)[C@H](C)O1 [Doxorubicin, doxorubicin] | 0.97 | 1.08 | 1.14 | 1.29 | 1.38 |  |  |  |  |  |  |  |  | 
3 | COc1cccc2c1C(=O)c1c(O)c3c(c(O)c1C2=O)C[C@@](O)(C(=O)CO)C[C@@H]3O[C@H]1C[C@H](N)[C@@H](O)[C@H](C)O1 [Epirubicin, epirubicin] | 1.29 | 1.39 | 1.42 | 1.62 | 2.37 | increased in a concentration-dependent manner | selectively inhibited FOXP3 function | significantly high as compared to that in the control at P<0.05 | significantly high as compared to that in the control at P<0.01 | increased in an epirubicin concentration-dependent manner | increased in a concentration-dependent manner | did not vary | concentration-dependent changes were not observed | increased in a concentration-dependent manner
4 | CC(=O)[C@]1(O)Cc2c(O)c3c(c(O)c2[C@@H](O[C@H]2C[C@H](N)[C@H](O)[C@H](C)O2)C1)C(=O)c1ccccc1C3=O [Idarubicin, idarubicin] | 1.02 | 1.21 |  |  |  |  |  |  |  |  |  |  |  | 
5 | COc1cccc2c1C(=O)c1c(O)c3c(c(O)c1C2=O)C[C@@](O)(C(=O)CO)C[C@@H]3O[C@H]1C[C@H](N)[C@H](O[C@@H]2CCCCO2)[C@H](C)O1 [Pirarubicin, pirarubicin] | 1.03 | 1.08 | 1.53 | 1.50 |  |  |  |  |  |  |  |  |  | 
